Assay: xn = mol fraction of the nth substance listed
Conditions: 101 kPa, Liquid, Vibrating tube method

CCCC[N+](CCCC)(CCCC)CCCC.[Br-] [tetrabutylammonium bromide] + O
mass density [kg/m3]
Conditions	282.15 K	283.15 K	288.15 K	293.15 K	298.15 K	303.15 K	308.15 K
x1 = 0.0009	–	1001	1000.35	999.405	998.18	996.74	995.085
x1 = 0.0018	–	1002.3	1001.6	1000.6	999.32	997.82	996.14
x1 = 0.00359	–	1004.95	1004.1	1002.98	1001.59	999.99	998.22
x1 = 0.00715	–	1010.26	1009.15	1007.76	1006.13	1004.3	1002.32
x1 = 0.01069	–	1015.5	1014.04	1012.37	1010.49	1008.43	1006.21
x1 = 0.01421	–	1020.38	1018.72	1016.75	1014.53	1012.26	1009.84
x1 = 0.0177	1025.44	1025.06	1023.06	1020.77	1018.3	1015.77	1013.13
x1 = 0.02202	1030.69	1030.21	1027.79	1025.18	1022.43	1019.65	1016.74
x1 = 0.02631	1035.23	1034.68	1031.87	1028.99	1026	1022.97	1019.88
x1 = 0.03056	1038.05	1037.44	1035.33	1032.22	1029.06	1025.85	1022.54
x1 = 0.03478	1042.16	1041.49	1038.35	1035.02	1031.68	1028.34	1024.97
x1 = 0.0431	1047.12	1046.41	1042.93	1039.41	1035.89	1032.36	1028.78
x1 = 0.05128	1051.21	1050.46	1046.34	1042.74	1039.06	1035.44	1031.82
x1 = 0.07499	1057.05	1056.3	–	–	–	–	–

— the NIST ThermoML archive (doi:10.1021/je900164a)
